The text below walks through data of patent US20090054333A1, “Peptide inhibitors of cyclin-dependent kinase activity and uses thereof” (priority 2006, published 2009).

The test system of the assay is endogenous cdk2. The experiment in a line: endogenous cdk2 kinase activity after transient transfection of NIH/3T3 cells. Format: cell-based. Conditions: NIH/3T3 transfected with pEF6/V5 constructs; 48 h after transfection. The procedure:
Kinase assays: Cell lysates from NIH/3T3 were prepared by resuspending pelleted cells in 500 μl of lysis buffer (50 mM Tris, 5 mM EDTA, 250 mM NaCl, 50 mM NaF, 0.1% Triton, 0.1 mM Na3VO4, plus protease inhibitors). An equal amount of protein for each fraction (100 μg) was immunoprecipitated with a polyclonal anti-cdk2 antibody (De Luca et al., 1997, J Biol Chem, 272, 20971-4). The complexes were pulled down with protein A-Sepharose and washed three times with lysis buffer and twice with lysis buffer containing 400 mM NaCl. The complexes were equilibrated in kinase assay buffer (20 mM HEPES pH 7.4, 10 mM MgAc, […], 1 mM DTT). In order to detect the in vitro inhibition of cdk2 activity, each sample was incubated with an equal amount (0.1 μg) of each pGEX-2T fusion protein, in a final volume of 20 μl of kinase buffer, using 5 μCi/sample of γ-ATP (Amersham Biosciences, Piscataway, N.J.) and 2 μg of Histone H1 for 30 minutes at 30° C. Kinase assays were repeated at least three times, giving an inter assay standard deviation within 10% after normalization for protein amount. […]
In FIG. 3a, asynchronously growing NIH/3T3 cells were transfected with pEF6/V5 vector, pEF6/V5-Spa310 or pEF6/V5-spacer. […] Phosphorylation of histone H1 was monitored by autoradiography. […]

Consider “Spa310: pRb2/p130 amino acids 641-679 (39 amino acids long), SEQ ID NO:3; LTPRRVTEVRADTGGLGRSITSPTTLYDRYSSPPASTTR (listed as Homo sapiens)”, for which the “inhibition of cdk2-dependent histone phosphorylation (endogenous cdk2)” value is listed as “significant inhibition”.

B1: Spacer: full-length pRb2/p130 spacer domain, amino acids 616-828 (SEQ ID NO:20) (protein, listed as Homo sapiens)
chain: VPTCEEVMPPQNLERADEICIAGSPLTPRRVTEVRADTGGLGRSITSPTTLYDRYSSPPASTTRRRLFVENDSPSDGGTPGRMPPQPLVNAVPVQNVSGETVSVTPVPGQTLVTMATATVTANNGQTVTIPVQGIANENGGITFFPVQVNVGGQAQAVTGSIQPLSAQALAGSLSSQQVTGTTLQVPGQVAIQQISPGGQQQKQGQSVTSSSN
As for B1, the “inhibition of cdk2-dependent histone phosphorylation (endogenous cdk2)” value is “significant inhibition”.
